According to patent US20170121315A1, “HETEROBICYCLICALLY SUBSTITUTED 4-OXOBUTANE ACID DERIVATIVES AND USE THEREOF” (priority 2014, published 2017):

Experiments:
rat hepatocytes = assay: Hepatocyte assay for determination of metabolic stability; type: in vitro ADME; conditions: after incubation with rat hepatocytes
Description: The metabolic stability of test compounds towards hepatocytes is determined by incubating the compounds at low concentrations (preferably below or around 1 μM) and at low cell counts (preferably at 1*10^6 cells/ml) in order to ensure maximum linearity of kinetic conditions in the experiment. Seven samples from the incubation solution are taken for the LC-MS analysis within a fixed time pattern, in order to determine the half-life (i.e. the degradation) of the particular compound. This half-life is used to calculate various “Clearance” parameters (CL) and “Fmax” values (see below).
The CL and Fmax values are a measure of the phase 1 and phase 2 metabolism of the compounds in the hepatocytes. In order to minimize the influence of the organic solvent on the enzymes in the incubation batches, the concentration thereof is generally limited to 1% (acetonitrile) or 0.1% (DMSO).
For all species and breeds, a hepatocyte cell count in the liver of 1.1*10^8 cells/g of liver is expected.

[1] = molecular target: T1, human macrophage elastase (HME/hMMP-12) (Homo sapiens, UniProt P39900); assay: In vitro HME inhibition test (standard or high-sensitivity); type: biochemical; conditions: in some cases mean values, rounded to two significant figures
T1 construct: purchased R&D Systems 917-MP
T1 sequence (P39900 106-470): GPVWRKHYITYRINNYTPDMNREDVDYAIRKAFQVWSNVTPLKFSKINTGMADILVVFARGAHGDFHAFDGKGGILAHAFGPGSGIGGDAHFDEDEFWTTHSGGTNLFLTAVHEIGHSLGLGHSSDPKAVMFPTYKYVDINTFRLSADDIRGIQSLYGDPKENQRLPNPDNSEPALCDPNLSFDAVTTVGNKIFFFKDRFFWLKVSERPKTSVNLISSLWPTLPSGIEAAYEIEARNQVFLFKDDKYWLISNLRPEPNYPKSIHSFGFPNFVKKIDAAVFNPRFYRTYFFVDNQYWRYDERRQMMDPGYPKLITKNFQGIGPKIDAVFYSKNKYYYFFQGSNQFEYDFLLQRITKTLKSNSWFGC
Method in brief: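 Autoactivated HME (0.5 nM; high-sensitivity format 0.05 nM, ~16 h) with 5 μM quenched Mca-PLGLEEA-Dap(Dnp)-NH2 substrate in HEPES pH 7.4, NaCl, CaCl2, ZnCl2, EDTA, Brij buffer, 2 h at 37° C. Fluorescence at ex 323/em 393 nm; IC50 from signal versus concentration.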

## O=C(CC(CCn1nnc2ccc(C(F)(F)F)cc2c1=O)C(=O)O)c1cc2ccc(OCC3CC3)cc2s1 (single isomer, unassigned; enantiomer 2) [Example 130, 4-[6-(Cyclopropylmethoxy)-1-benzothiophen-2-yl]-4-oxo-2-{2-[4-oxo-6-(trifluoromethyl)-1,2,3-benzotriazin-3(4H)-yl]ethyl}butanoic acid (enantiomer 2)]
Rat hepatocytes
  CLblood (calculated blood clearance, well-stirred): 34.8 mL/min/kg
  Fmax (maximum possible bioavailability after oral administration, well-stirred): 50.3%
[1]
  IC50: 0.12 nM
